Measurements from publication PMC5415848, “Structural basis of molecular recognition of helical histone H3 tail by PHD finger domains” (Biochemical Journal, 2017).
Changes are numbered by the printed parent chain. Where two headings read alike, the source gives them in different places. Residues, ends and D or L forms follow the SMILES beside them. No end group written: not given here.

Key:
Format in all cases: binding
BAZ2B PHD = target: T1, BAZ2B PHD (Homo sapiens, UniProt Q9UIF8); test: ITC, H3 peptides titrated into BAZ2B PHD (WT); conditions: for effect on binding, in words: compared with H3 10-mer WT
T1 construct: The small PHDs (∼6.5 kDa) of both BAZ2A and BAZ2B; made in house
T1 sequence (Q9UIF8 1931-1981 limits assumed): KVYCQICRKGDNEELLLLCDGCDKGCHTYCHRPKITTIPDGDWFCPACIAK
Experimental: (§1) All calorimetric experiments were performed on a MicroCal iTC200 microcalorimeter (GE Healthcare) at 25°C in a buffer containing 20 mM HEPES at a pH of 8, 150 mM NaCl and 0.5 mM Tris(2-carboxyethyl) phosphine. All ITC experiments were carried out titrating peptide solutions (1.5–3 mM) into protein solutions (80–120 µM) loaded in the calorimeter cell, performing one first injection of 0.4 µl followed by 19 injections of 2 µl. The data were analyzed using the MicroCal™ software package subtracting the data from an independent titration of peptide into buffer to account for heat of dilution, and then fitted using a single-binding site model. Protein concentration was determined by measuring absorbance at 280 nm using the following extinction coefficients: BAZ2A PHD ε280 = 6990 M^−1 cm^−1 and BAZ2B PHD ε280 = 8480 M^−1 cm^−1. Lyophilized peptides were weighted and dissolved in an appropriate volume of buffer to obtain the desired concentration.

BAZ2A PHD = target: T2, BAZ2A PHD (Homo sapiens, UniProt Q9UIF9); test: ITC, H3 peptides titrated into BAZ2A PHD (WT); conditions: for effect on binding, in words: compared with H3 10-mer WT or the peptide named in the words
T2 construct: The small PHDs (∼6.5 kDa) of both BAZ2A and BAZ2B; made in house
T2 sequence (Q9UIF9 1676-1726 limits assumed): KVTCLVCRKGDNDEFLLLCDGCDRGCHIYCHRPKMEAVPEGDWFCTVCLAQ
Experimental: as §1

BAZ2A PHD E1689K = target: T3, BAZ2A PHD E1689K (Homo sapiens, UniProt Q9UIF9, E1689K); test: ITC, H3 10-mer into BAZ2A PHD E1689K mutant; conditions: ITC 25°C, duplicate, mean ± s.e.m.; SEM
T3 construct: Mutations were introduced into BAZ2A/B PHD fingers by polymerase chain reaction (PCR) amplification of the original construct; made in house
T3 sequence (Q9UIF9 1676-1726 E1689K limits assumed): T2 sequence (Q9UIF9 1676-1726 limits assumed) with E14K
Experimental: (§2) Mutations were introduced into BAZ2A/B PHD fingers by polymerase chain reaction (PCR) amplification of the original construct using Phusion DNA Polymerase (Thermo Fisher Scientific) and a specific pair of primers for each mutation (Supplementary Table S4). The PCR amplification product was incubated with Dpn I (New England BioLabs) for 1 h at 37°C to digest the parental DNA strands and then used to transform Escherichia coli DH5α cells. Transformed cells were grown on lysogeny broth (LB) agar plates supplemented with 100 µg/ml ampicillin for 16 h at 37°C. Single colonies were picked to inoculate 5 ml of LB plus 100 µg/ml ampicillin and grown for 16 h at 37°C. […]
(§3) All calorimetric experiments were performed on a MicroCal iTC200 microcalorimeter (GE Healthcare) at 25°C in a buffer containing 20 mM HEPES at a pH of 8, 150 mM NaCl and 0.5 mM Tris(2-carboxyethyl) phosphine. […] The data were analyzed using the MicroCal™ software package subtracting the data from an independent titration of peptide into buffer to account for heat of dilution, and then fitted using a single-binding site model. Protein concentration was determined by measuring absorbance at 280 nm using the following extinction coefficients: BAZ2A PHD ε280 = 6990 M^−1 cm^−1 and BAZ2B PHD ε280 = 8480 M^−1 cm^−1. […]

BAZ2B PHD E1944K = target: T4, BAZ2B PHD E1944K (Homo sapiens, UniProt Q9UIF8, E1944K); test: ITC, H3 10-mer into BAZ2B PHD E1944K mutant; conditions: ITC 25°C
T4 construct: Mutations were introduced into BAZ2A/B PHD fingers by polymerase chain reaction (PCR) amplification of the original construct; made in house
T4 sequence (Q9UIF8 1931-1981 E1944K limits assumed): T1 sequence (Q9UIF8 1931-1981 limits assumed) with E14K
Experimental: as §2, §3

BAZ2A PHD D1688N/E1689Q = target: T5, BAZ2A PHD D1688N/E1689Q (Homo sapiens, UniProt Q9UIF9, D1688N/E1689Q); test: ITC, H3 10-mer into BAZ2A PHD D1688N/E1689Q double mutant; conditions: ITC 25°C, triplicate, mean ± s.e.m.; N fixed to 1 in fit; SEM
T5 construct: Mutations were introduced into BAZ2A/B PHD fingers by polymerase chain reaction (PCR) amplification of the original construct; made in house
T5 sequence (Q9UIF9 1676-1726 D1688N/E1689Q limits assumed): T2 sequence (Q9UIF9 1676-1726 limits assumed) with D13N, E14Q
Experimental: as §2, §3

BAZ2B PHD E1944Q = target: T6, BAZ2B PHD E1944Q (Homo sapiens, UniProt Q9UIF8, E1944Q); test: ITC, H3 10-mer into BAZ2B PHD E1944Q mutant; conditions: ITC 25°C, triplicate, mean ± s.e.m.; N fixed to 1 in fit; SEM
T6 construct: Mutations were introduced into BAZ2A/B PHD fingers by polymerase chain reaction (PCR) amplification of the original construct; made in house
T6 sequence (Q9UIF8 1931-1981 E1944Q limits assumed): T1 sequence (Q9UIF8 1931-1981 limits assumed) with E14Q
Experimental: as §2, §3

BAZ2A PHD E1689Q = target: T7, BAZ2A PHD E1689Q (Homo sapiens, UniProt Q9UIF9, E1689Q); test: ITC, H3 10-mer into BAZ2A PHD E1689Q mutant; conditions: ITC 25°C, triplicate, mean ± s.e.m.; SEM
T7 construct: Mutations were introduced into BAZ2A/B PHD fingers by polymerase chain reaction (PCR) amplification of the original construct; made in house
T7 sequence (Q9UIF9 1676-1726 E1689Q limits assumed): T2 sequence (Q9UIF9 1676-1726 limits assumed) with E14Q
Experimental: as §2, §3

[1] = ITC, 25°C, 20 mM HEPES pH 8, 150 mM NaCl, 0.5 mM TCEP, peptide 1.5–3 mM into protein 80–120 µM, single-site fit, error from fit (Table 2), read-out: KD
[2] = KD, ITC, 25°C, 20 mM HEPES pH 8, 150 mM NaCl, 0.5 mM TCEP, peptide 1.5–3 mM into protein 80–120 µM, single-site fit, error from fit (Table 2)

| Compound | Kd (BAZ2B PHD; [1]) | Kd (BAZ2A PHD; [1]) | further results |
| --- | --- | --- | --- |
| C[C@H](N)C(=O)N[C@@H](CCCNC(=N)N)C(=O)N[C@H](C(=O)N[C@@H](C)C(=O)N[C@@H](CCC(N)=O)C(=O)N[C@H](C(=O)N[C@@H](C)C(=O)N[C@@H](CCCNC(=N)N)C(=O)N[C@@H](CCCCN)C(=O)N[C@@H](CO)C(N)=O)[C@@H](C)O)[C@@H](C)O [ARTAQTARKS] | 8.5 ± 0.2 µM | 42 ± 2 µM |  |
| C[C@H](N)C(=O)N[C@@H](CCCNC(=N)N)C(=O)N[C@H](C(=O)N[C@@H](C)C(N)=O)[C@@H](C)O [ARTA] (H-ARTA-NH2) |  | 56 ± 2 µM |  |
| C[C@H](N)C(=O)N[C@@H](CCCNC(=N)N)C(=O)N[C@H](C(=O)N[C@@H](CCCCN)C(=O)N[C@@H](C)C(=O)N[C@H](C(=O)N[C@@H](C)C(=O)N[C@@H](CCCNC(=N)N)C(=O)N[C@@H](CCCCN)C(=O)N[C@@H](CO)C(N)=O)[C@@H](C)O)[C@@H](C)O [ARTKATARKS] | 7 ± 0.2 µM | 9.3 ± 0.2 µM |  |
| C[C@H](N)C(=O)N[C@@H](CCCNC(=N)N)C(=O)N[C@H](C(=O)N[C@@H](CCCCN)C(=O)N[C@@H](CCC(N)=O)C(=O)N[C@@H](C)C(=O)N[C@@H](C)C(=O)N[C@@H](CCCNC(=N)N)C(=O)N[C@@H](CCCCN)C(=O)N[C@@H](CO)C(N)=O)[C@@H](C)O [ARTKQAARKS] | 44.6 ± 0.8 µM | 55 ± 2 µM |  |
| C[C@H](N)C(=O)N[C@@H](CCCNC(=N)N)C(=O)N[C@H](C(=O)N[C@@H](CCCCN)C(=O)N[C@@H](CCC(N)=O)C(=O)N[C@H](C(=O)N[C@@H](C)C(=O)N[C@@H](CCCNC(=N)N)C(=O)N[C@@H](CCCCN)C(=O)N[C@@H](CO)C(N)=O)[C@@H](C)O)[C@@H](C)O [ARTKQTARKS] |  |  | Kd (BAZ2B PHD; KD, BAZ2B PHD wt, ITC 25°C, triplicate, mean ± s.e.m. (Table 3), SEM): 47 ± 2 µM; Kd (BAZ2B PHD; [2]): 40 ± 0.5 µM; Kd (BAZ2A PHD; KD, BAZ2A PHD wt, ITC 25°C, triplicate, mean ± s.e.m. (Table 3), SEM): 48 ± 2 µM; Kd (BAZ2A PHD; [2]): 51 ± 2 µM; Kd (BAZ2A PHD E1689K): 116 ± 6 µM; KD (BAZ2B PHD E1944K): completely abrogated binding; Kd (BAZ2B PHD E1944K): > 1000 µM; Kd (BAZ2A PHD D1688N/E1689Q): 810 ± 50 µM; Kd (BAZ2B PHD E1944Q): 660 ± 60 µM; Kd (BAZ2A PHD E1689Q): 83 ± 7 µM |
| C[C@H](N)C(=O)N[C@@H](CCCNC(=N)N)C(=O)N[C@H](C(=O)N[C@@H](CCCCN)C(=O)N[C@@H](CCC(N)=O)C(N)=O)[C@@H](C)O [ARTKQ] | 190 ± 25 µM | 210 ± 30 µM |  |
| C[C@H](N)C(=O)N[C@@H](CCCNC(=N)N)C(=O)N[C@H](C(=O)N[C@@H](CCCCN)C(N)=O)[C@@H](C)O [ARTK] (H-ARTK-NH2) |  | 100 ± 4 µM |  |
| AATKQTARKS-NH2 [AATKQTARKS] | > 1000 µM | > 1000 µM | effect on binding, in words (BAZ2B PHD; ITC): abolished binding; effect on binding, in words (BAZ2A PHD; ITC): abolished binding |
| ARAKQTARKS-NH2 [ARAKQTARKS] | > 5000 µM |  | effect on binding, in words (BAZ2B PHD; ITC): abolished binding; KD (BAZ2A PHD; ITC, 25°C, 20 mM HEPES pH 8, 150 mM NaCl, 0.5 mM TCEP, peptide 1.5–3 mM into protein 80–120 µM, single-site fit, error from fit (Table 2)): No binding; effect on binding, in words (BAZ2A PHD; ITC): abolished binding |
| ARTAATARKS-NH2 [ARTAATARKS] | 2.6 ± 0.1 µM | 12.1 ± 0.3 µM |  |
| ARTGGTARKS-NH2 [ARTGGTARKS] | 166 ± 8 µM | 143 ± 7 µM |  |
